According to patent US9464064B2, “HCV helicase inhibitors and methods of use thereof” (University of Kansas, priority 2011, dated 2016):

Target: T1, HCV NS3 helicase NS3h_1b(con1) (Hepatitis C virus genotype 1b, UniProt Q9WMX2)
T1 construct: truncated C-terminally His-tagged NS3 proteins lacking the N-terminal protease, called NS3h; His-tag (C); made in house
Experiment: MBHA screen of NCI mechanistic set library at 20 μM (percent inhibition, compound interference)
Format: biochemical
Settings: compounds at 20 μM; for Inh. (%) (Inhibition): calculated from Equation 1
How it was run: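 Molecular beacon-based DNA unwinding assay; compounds screened at 20 μM in triplicate, with DMSO-only negative and 500 nM dT20 positive controls. Fluorescence (ex 643/em 670 nm) was read before and 30 min after adding ATP to 1 mM. Percent inhibition came from the change relative to DMSO controls; interference from pre-ATP fluorescence versus DMSO controls.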

[1] = MBHA with DNA substrate, assay interference calculated with Equation 2
[2] = assay interference calculated with Equation 2 (fluorescence vs DMSO-only controls before ATP)

T1 sequence (Q9WMX2 1192-1657): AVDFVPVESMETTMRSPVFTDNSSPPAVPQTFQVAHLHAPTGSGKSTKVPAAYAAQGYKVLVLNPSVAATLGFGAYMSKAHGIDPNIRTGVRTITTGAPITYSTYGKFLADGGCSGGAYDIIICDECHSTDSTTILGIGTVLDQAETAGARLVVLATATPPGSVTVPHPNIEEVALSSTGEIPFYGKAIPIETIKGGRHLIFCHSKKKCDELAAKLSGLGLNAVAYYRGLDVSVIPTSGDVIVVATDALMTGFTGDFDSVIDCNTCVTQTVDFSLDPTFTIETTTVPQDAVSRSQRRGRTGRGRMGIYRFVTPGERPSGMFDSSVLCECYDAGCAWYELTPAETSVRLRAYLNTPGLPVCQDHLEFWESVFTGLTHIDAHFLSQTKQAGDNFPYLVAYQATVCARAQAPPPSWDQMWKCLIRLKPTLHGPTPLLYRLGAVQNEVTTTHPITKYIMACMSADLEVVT

Int.* (Ratio) (Interference) [1] | Inh. (%) (Inhibition) (MBHA with DNA substrate) | SMILES | Inh. (%) (Inhibition) (MBHA with a DNA substrate) | Int.* (Ratio) (Interference) [2]
0.98 Ratio | 20.4% | N#CC(c1ccccc1)N(CCCCCCN(C(=O)c1ccccc1)C(C#N)c1ccccc1)C(=O)c1ccccc1 (stereo not shown) [Compound 681744] | – | –
– | – | CN(C)c1ccc(/C=C/C(=O)[O-])cc1.CN(C)c1ccc(/C=C/C(=O)[O-])cc1.[Cu+2] [Compound 643351] | −20.4% | 0.89 Ratio
– | – | CC[C@](C)(O)C(=O)O[C@H]1C(=O)O[C@@H]2C[C@H]3C(C)=CC(=O)[C@@H](O)[C@]3(C)[C@H]3C4(O)OC[C@]32[C@@H]1[C@@H](C)[C@H]4O [Compound 132791] | 8.2% | 0.98 Ratio
0.92 Ratio | 0.1% | O=C(CC1(O)C(=O)Nc2c(Cl)ccc(Cl)c21)c1ccc(Cl)cc1 (stereo not shown) [Compound 635437] | – | –
0.94 Ratio | −7.3% | Cn1cnc([N+](=O)[O-])c1Sc1nnnn1-c1ccccc1 [Compound 631152] | – | –
0.91 Ratio | −0.8% | CCCc1c(Cl)nc(Cl)nc1Cl [Compound 66914] | – | –
– | – | C1COCCN1.S=C(S)N1CCOCC1 [Compound 4114] | 7.2% | 1.15 Ratio
0.99 Ratio | 1.4% | CCc1cccc(C(C)C)c1NC(=O)/C(=N\NC(N)=O)C(C(=O)OC)c1cnc2ccccc2n1 (stereo not shown) [Compound 642033] | – | –
0.97 Ratio | −1.8% | CC(C)(C)OC(=O)NC(Cc1ccccc1)C(=O)OCN1C(=O)C2C3C=CC(C2C1=O)C1C2C(=O)N(COC(=O)C(Cc4ccccc4)NC(=O)OC(C)(C)C)C(=O)C2C31 (stereo not shown) [Compound 607316] | – | –
1.15 Ratio | 1.1% | C[C@@H](N)C(=O)NC(CO)C(O)C(N)C=O.Cl (stereo partly shown) [Compound 278619] | – | –
– | – | CCCC(=O)OCC1OC(n2ccc(N)nc2=O)C(OC(=O)CCC)C1OC(=O)CCC (stereo not shown) [Compound 138429] | 10.9% | 1.09 Ratio
1.02 Ratio | −0.4% | CC(C)N.CC(C)N.[Cl-].[Cl-].[OH-].[OH-].[Pt] [Compound 256927] | – | –
0.92 Ratio | −13.7% | O=C1Nc2c(Cl)cc(Cl)cc2C1=O [Compound 26045] | – | –
0.87 Ratio | 3.7% | O=C(O)c1ccc(NC(c2ccccc2)c2ccc3cccnc3c2O)cc1 (stereo not shown) [Compound 1011] | – | –
0.86 Ratio | −14.3% | Cc1nc2c(o1)C(=O)c1ccccc1C2=Nc1ccccc1 [Compound 650573] | – | –
– | – | COC1=C(C)C(=O)C2=C(C1=O)C(CO)N1C(C#N)C3CC4C(C1C2N1CCOC41)N3C (stereo not shown) [Compound 349644] | 7.1% | 0.91 Ratio
0.98 Ratio | −10.6% | O=C1Cc2c([nH]c3ccc(Br)cc23)-c2ccccc2N1 [Compound 664704] | – | –
– | – | NC(=O)N/N=C1\CC2C3CC4C2C4C13 (stereo not shown) [Compound 673912] | −4.0% | 1.04 Ratio
1.08 Ratio | 1.0% | Nc1ncnc2c(C3OC(CO)C(O)C3O)[nH]nc12 (stereo not shown) [Compound 102811] | – | –
1.08 Ratio | 55.1% | CCN(CC)CCCC(C)Nc1c2ccc(Cl)cc2nc2ccc(OC)cc12.Cl.Cl (stereo not shown) [Compound 14229] | – | –
1.01 Ratio | −2.1% | Br.CN(C)c1nc(=NCc2ccco2)ss1 [Compound 622608] | – | –

SMILES | Int.* (Ratio) (Interference) [1] | Inh. (%) (Inhibition) (MBHA with DNA substrate) | Inh. (%) (Inhibition) (MBHA with a DNA substrate) | Int.* (Ratio) (Interference) [2]
NC(=O)c1cn(C2OC(CO)C(O)C2O)c2ncnc(N)c12 (stereo not shown) [Compound 65346] | 0.92 Ratio | 0.0% | – | –
COc1cc([C@@H]2c3cc4c(c(O)c3C[C@H]3COC(=O)[C@@H]32)OCO4)cc(OC)c1OC [Compound 24819] | 1.12 Ratio | −0.3% | – | –
